Measured values as given in ChEMBL document CHEMBL3991601, “The target landscape of clinical kinase drugs” (Science, 2017).
Calls of active or inactive are those of the source. Cut-off read from the data, not from the text of the source, for most assays here: actives have a measured Kd and inactives only a lower limit.

Target: T1, Serine/threonine-protein kinase ULK1 (Homo sapiens, UniProt O75385)
T1 sequence (O75385 whole entry): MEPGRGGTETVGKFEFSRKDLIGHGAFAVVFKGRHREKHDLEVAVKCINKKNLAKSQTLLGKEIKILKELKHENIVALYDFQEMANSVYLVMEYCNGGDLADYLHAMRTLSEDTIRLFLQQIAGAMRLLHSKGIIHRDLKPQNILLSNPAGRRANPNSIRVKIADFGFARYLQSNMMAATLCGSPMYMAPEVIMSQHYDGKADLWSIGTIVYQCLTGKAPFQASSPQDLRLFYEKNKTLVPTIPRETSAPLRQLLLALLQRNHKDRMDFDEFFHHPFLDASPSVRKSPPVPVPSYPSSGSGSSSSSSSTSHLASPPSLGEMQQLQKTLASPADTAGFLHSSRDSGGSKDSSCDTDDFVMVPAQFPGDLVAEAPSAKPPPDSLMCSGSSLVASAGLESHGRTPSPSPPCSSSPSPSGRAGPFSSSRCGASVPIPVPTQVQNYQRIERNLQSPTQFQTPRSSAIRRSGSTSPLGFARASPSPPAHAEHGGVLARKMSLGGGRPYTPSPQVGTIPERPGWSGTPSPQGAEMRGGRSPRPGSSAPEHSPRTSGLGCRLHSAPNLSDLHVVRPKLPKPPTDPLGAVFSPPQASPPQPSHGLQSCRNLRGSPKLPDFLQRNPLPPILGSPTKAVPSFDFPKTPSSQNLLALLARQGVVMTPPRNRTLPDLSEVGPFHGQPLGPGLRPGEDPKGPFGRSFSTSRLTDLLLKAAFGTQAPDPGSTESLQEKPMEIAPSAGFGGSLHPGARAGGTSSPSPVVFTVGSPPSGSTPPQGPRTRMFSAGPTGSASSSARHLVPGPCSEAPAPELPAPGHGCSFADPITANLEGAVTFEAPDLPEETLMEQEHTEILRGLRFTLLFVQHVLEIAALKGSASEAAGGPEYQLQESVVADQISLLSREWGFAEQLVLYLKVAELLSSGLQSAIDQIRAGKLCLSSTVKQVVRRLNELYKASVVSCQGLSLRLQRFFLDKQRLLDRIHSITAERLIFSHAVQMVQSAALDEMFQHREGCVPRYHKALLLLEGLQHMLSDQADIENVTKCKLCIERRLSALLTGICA
Note: in the data inactive means no Kd found up to 30 µM.

Row | Compound | Kd
1 | Cn1cc(-c2ccc3nnc(C(F)(F)c4ccc5ncccc5c4)n3n2)cn1 [JNJ-38877605] | > 30 µM (inactive)
2 | COC(=O)[C@@]1(O)C[C@H]2O[C@]1(C)n1c3ccccc3c3c4c(c5c6ccccc6n2c5c31)C(=O)NC4 [K-252A] | > 30 µM (inactive)
3 | COc1cc2nccc(Oc3ccc(NC(=O)NC4CC4)c(Cl)c3)c2cc1C(N)=O [LENVATINIB] | > 30 µM (inactive)
4 | Cc1c(F)cc(C(=O)NC2CC2)cc1-c1ccc(C(=O)NCC(C)(C)C)cn1 [LOSMAPIMOD] | > 30 µM (inactive)
5 | Cn1cc(-c2ccc(F)c(C(F)(F)F)c2)nc1C1CCN(c2ncnc3[nH]ncc23)CC1 [LY-2584702] | > 30 µM (inactive)

Target: Insulin-like growth factor 1 receptor (Homo sapiens, UniProt P08069)
Sequence (P08069 31-736 limits assumed): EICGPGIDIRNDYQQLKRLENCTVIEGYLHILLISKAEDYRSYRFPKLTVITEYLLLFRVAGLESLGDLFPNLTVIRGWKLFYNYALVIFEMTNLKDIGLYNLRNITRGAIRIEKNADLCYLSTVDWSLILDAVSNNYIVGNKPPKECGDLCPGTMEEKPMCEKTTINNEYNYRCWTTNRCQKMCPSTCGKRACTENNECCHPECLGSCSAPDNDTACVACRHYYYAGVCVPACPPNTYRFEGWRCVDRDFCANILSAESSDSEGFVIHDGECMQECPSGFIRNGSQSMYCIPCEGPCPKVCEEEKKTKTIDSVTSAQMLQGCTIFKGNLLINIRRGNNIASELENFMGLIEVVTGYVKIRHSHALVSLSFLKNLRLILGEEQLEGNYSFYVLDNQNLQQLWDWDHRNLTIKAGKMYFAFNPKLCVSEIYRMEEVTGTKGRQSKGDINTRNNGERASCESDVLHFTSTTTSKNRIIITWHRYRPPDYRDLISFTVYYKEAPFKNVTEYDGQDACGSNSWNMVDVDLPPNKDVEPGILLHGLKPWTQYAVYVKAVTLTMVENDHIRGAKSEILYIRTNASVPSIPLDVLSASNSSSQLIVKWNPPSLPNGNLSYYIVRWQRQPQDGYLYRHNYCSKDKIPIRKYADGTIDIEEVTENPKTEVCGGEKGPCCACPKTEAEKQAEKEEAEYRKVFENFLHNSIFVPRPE
Sequence (P08069 741-1367 limits assumed): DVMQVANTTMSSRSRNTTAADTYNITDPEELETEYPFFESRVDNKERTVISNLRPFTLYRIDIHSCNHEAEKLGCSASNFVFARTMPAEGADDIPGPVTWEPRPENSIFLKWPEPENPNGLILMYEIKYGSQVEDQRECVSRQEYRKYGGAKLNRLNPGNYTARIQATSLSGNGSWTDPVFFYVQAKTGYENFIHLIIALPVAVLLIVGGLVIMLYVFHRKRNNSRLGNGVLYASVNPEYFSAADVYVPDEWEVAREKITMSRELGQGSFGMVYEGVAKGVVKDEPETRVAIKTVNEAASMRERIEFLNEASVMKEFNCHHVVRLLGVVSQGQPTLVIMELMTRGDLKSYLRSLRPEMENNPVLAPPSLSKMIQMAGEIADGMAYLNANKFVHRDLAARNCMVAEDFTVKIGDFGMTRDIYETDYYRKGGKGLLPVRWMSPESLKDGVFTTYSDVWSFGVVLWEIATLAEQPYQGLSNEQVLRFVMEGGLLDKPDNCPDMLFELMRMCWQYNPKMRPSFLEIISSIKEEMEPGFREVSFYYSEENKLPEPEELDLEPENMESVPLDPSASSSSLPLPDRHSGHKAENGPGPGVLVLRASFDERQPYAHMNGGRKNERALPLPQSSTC

Row | Compound | Kd
6 | Cn1cc(-c2ccc3nnc(C(F)(F)c4ccc5ncccc5c4)n3n2)cn1 [JNJ-38877605] | > 30 µM (inactive)
7 | COC(=O)[C@@]1(O)C[C@H]2O[C@]1(C)n1c3ccccc3c3c4c(c5c6ccccc6n2c5c31)C(=O)NC4 [K-252A] | > 30 µM (inactive)
8 | COc1cc2nccc(Oc3ccc(NC(=O)NC4CC4)c(Cl)c3)c2cc1C(N)=O [LENVATINIB] | > 30 µM (inactive)
9 | Cc1c(F)cc(C(=O)NC2CC2)cc1-c1ccc(C(=O)NCC(C)(C)C)cn1 [LOSMAPIMOD] | > 30 µM (inactive)
10 | Cn1cc(-c2ccc(F)c(C(F)(F)F)c2)nc1C1CCN(c2ncnc3[nH]ncc23)CC1 [LY-2584702] | > 30 µM (inactive)

Target: TGF-beta receptor type-2 (Homo sapiens, UniProt P37173)
Sequence (P37173 whole entry): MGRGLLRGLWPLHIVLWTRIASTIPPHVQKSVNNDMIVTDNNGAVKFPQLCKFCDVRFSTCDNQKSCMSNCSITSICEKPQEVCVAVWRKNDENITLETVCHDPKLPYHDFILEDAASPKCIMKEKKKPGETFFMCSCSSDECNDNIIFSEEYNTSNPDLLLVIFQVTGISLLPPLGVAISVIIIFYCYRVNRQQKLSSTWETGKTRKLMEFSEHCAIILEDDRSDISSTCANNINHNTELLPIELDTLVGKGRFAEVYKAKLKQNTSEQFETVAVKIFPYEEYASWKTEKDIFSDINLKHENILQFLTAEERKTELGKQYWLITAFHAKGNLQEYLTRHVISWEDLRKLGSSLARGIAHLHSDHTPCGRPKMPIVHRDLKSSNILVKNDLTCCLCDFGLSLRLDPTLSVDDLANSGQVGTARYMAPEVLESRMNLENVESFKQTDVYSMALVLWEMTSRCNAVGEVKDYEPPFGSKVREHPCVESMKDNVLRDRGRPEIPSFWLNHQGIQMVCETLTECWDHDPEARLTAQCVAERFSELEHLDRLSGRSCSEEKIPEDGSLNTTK

Row | Compound | Kd
11 | Cn1cc(-c2ccc3nnc(C(F)(F)c4ccc5ncccc5c4)n3n2)cn1 [JNJ-38877605] | > 30 µM (inactive)
12 | COC(=O)[C@@]1(O)C[C@H]2O[C@]1(C)n1c3ccccc3c3c4c(c5c6ccccc6n2c5c31)C(=O)NC4 [K-252A] | > 30 µM (inactive)
13 | COc1cc2nccc(Oc3ccc(NC(=O)NC4CC4)c(Cl)c3)c2cc1C(N)=O [LENVATINIB] | > 30 µM (inactive)
14 | Cc1c(F)cc(C(=O)NC2CC2)cc1-c1ccc(C(=O)NCC(C)(C)C)cn1 [LOSMAPIMOD] | > 30 µM (inactive)
15 | Cn1cc(-c2ccc(F)c(C(F)(F)F)c2)nc1C1CCN(c2ncnc3[nH]ncc23)CC1 [LY-2584702] | > 30 µM (inactive)

Target: T2, Rab-like protein 3 (Homo sapiens, UniProt Q5HYI8)
T2 sequence (Q5HYI8 whole entry): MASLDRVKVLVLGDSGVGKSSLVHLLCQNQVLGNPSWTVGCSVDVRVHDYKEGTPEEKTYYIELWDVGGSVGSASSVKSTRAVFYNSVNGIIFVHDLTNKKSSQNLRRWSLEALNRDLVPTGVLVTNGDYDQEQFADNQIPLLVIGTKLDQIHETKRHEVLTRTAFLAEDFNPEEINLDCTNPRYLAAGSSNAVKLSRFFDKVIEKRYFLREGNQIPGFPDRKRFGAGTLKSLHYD

Row | Compound | Kd
16 | Cn1cc(-c2ccc3nnc(C(F)(F)c4ccc5ncccc5c4)n3n2)cn1 [JNJ-38877605] | > 30 µM (inactive)
17 | COC(=O)[C@@]1(O)C[C@H]2O[C@]1(C)n1c3ccccc3c3c4c(c5c6ccccc6n2c5c31)C(=O)NC4 [K-252A] | > 30 µM (inactive)
18 | COc1cc2nccc(Oc3ccc(NC(=O)NC4CC4)c(Cl)c3)c2cc1C(N)=O [LENVATINIB] | > 30 µM (inactive)
19 | Cc1c(F)cc(C(=O)NC2CC2)cc1-c1ccc(C(=O)NCC(C)(C)C)cn1 [LOSMAPIMOD] | > 30 µM (inactive)
20 | Cn1cc(-c2ccc(F)c(C(F)(F)F)c2)nc1C1CCN(c2ncnc3[nH]ncc23)CC1 [LY-2584702] | > 30 µM (inactive)

Target: T3, MAP kinase-activated protein kinase 5 (Homo sapiens, UniProt Q8IW41)
T3 sequence (Q8IW41 whole entry): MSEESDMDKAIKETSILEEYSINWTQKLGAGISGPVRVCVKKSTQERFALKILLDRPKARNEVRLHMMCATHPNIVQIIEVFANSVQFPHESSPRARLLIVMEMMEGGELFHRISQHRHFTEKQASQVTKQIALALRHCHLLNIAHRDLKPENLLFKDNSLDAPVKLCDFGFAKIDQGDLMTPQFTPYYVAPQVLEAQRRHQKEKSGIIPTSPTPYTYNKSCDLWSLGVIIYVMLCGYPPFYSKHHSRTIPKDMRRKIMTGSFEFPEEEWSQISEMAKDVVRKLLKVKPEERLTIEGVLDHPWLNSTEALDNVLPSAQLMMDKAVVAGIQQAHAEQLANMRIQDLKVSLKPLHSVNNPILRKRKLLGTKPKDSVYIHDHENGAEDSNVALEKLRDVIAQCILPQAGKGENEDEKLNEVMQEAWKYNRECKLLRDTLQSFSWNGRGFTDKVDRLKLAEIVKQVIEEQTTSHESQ

Row | Compound | Kd
21 | Cn1cc(-c2ccc3nnc(C(F)(F)c4ccc5ncccc5c4)n3n2)cn1 [JNJ-38877605] | > 30 µM (inactive)
22 | COC(=O)[C@@]1(O)C[C@H]2O[C@]1(C)n1c3ccccc3c3c4c(c5c6ccccc6n2c5c31)C(=O)NC4 [K-252A] | > 30 µM (inactive)
23 | COc1cc2nccc(Oc3ccc(NC(=O)NC4CC4)c(Cl)c3)c2cc1C(N)=O [LENVATINIB] | > 30 µM (inactive)
24 | Cc1c(F)cc(C(=O)NC2CC2)cc1-c1ccc(C(=O)NCC(C)(C)C)cn1 [LOSMAPIMOD] | > 30 µM (inactive)
25 | Cn1cc(-c2ccc(F)c(C(F)(F)F)c2)nc1C1CCN(c2ncnc3[nH]ncc23)CC1 [LY-2584702] | > 30 µM (inactive)

Target: Focal adhesion kinase 1 (Homo sapiens, UniProt Q05397)
Sequence (Q05397 whole entry): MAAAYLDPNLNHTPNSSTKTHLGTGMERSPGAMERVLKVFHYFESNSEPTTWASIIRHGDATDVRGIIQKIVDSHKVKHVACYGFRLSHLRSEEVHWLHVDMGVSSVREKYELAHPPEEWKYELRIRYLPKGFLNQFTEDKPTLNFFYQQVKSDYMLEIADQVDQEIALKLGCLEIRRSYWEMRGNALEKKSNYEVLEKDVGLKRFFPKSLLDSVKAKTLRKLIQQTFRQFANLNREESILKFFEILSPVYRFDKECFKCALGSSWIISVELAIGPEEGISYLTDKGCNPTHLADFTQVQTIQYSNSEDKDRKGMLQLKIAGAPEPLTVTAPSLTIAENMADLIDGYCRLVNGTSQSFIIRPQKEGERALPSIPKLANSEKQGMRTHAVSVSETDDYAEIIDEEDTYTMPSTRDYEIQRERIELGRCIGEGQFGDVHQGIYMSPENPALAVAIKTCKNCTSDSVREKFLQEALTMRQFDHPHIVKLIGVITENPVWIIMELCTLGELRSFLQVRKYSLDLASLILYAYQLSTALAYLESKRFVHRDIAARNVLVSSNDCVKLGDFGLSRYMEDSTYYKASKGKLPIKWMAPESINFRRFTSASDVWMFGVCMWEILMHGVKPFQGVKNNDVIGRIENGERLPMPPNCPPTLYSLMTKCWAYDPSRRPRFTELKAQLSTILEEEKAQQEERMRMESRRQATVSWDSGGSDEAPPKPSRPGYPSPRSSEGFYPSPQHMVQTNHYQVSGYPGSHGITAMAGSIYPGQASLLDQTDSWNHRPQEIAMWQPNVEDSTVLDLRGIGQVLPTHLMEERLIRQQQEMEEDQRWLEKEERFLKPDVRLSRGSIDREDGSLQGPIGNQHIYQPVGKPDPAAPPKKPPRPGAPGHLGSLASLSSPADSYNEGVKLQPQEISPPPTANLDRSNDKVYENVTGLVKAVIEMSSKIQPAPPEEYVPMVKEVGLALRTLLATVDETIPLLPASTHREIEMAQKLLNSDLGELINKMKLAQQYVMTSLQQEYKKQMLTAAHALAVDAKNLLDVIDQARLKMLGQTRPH

Row | Compound | Kd
26 | Cn1cc(-c2ccc3nnc(C(F)(F)c4ccc5ncccc5c4)n3n2)cn1 [JNJ-38877605] | > 30 µM (inactive)
27 | COC(=O)[C@@]1(O)C[C@H]2O[C@]1(C)n1c3ccccc3c3c4c(c5c6ccccc6n2c5c31)C(=O)NC4 [K-252A] | > 30 µM (inactive)
28 | COc1cc2nccc(Oc3ccc(NC(=O)NC4CC4)c(Cl)c3)c2cc1C(N)=O [LENVATINIB] | > 30 µM (inactive)
29 | Cc1c(F)cc(C(=O)NC2CC2)cc1-c1ccc(C(=O)NCC(C)(C)C)cn1 [LOSMAPIMOD] | > 30 µM (inactive)
30 | Cn1cc(-c2ccc(F)c(C(F)(F)F)c2)nc1C1CCN(c2ncnc3[nH]ncc23)CC1 [LY-2584702] | > 30 µM (inactive)

Target: Calcium/calmodulin-dependent protein kinase kinase 2 (Homo sapiens, UniProt Q96RR4)
Sequence (Q96RR4 whole entry): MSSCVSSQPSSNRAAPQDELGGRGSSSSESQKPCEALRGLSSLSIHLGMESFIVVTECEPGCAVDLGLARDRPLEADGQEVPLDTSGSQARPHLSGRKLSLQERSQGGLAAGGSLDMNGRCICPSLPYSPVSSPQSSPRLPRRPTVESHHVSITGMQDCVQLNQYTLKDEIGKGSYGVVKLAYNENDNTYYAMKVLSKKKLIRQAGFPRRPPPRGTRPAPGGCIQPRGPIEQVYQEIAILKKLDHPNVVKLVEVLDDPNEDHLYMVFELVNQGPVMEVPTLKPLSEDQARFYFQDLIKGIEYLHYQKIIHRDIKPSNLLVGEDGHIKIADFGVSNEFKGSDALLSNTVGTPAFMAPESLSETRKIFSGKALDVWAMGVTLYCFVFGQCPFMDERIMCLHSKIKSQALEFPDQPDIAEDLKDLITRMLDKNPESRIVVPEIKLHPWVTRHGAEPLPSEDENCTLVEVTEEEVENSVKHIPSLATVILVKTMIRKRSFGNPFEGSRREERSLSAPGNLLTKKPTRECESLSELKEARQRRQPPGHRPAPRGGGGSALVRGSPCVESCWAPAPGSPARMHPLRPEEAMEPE

Row | Compound | Kd
31 | Cn1cc(-c2ccc3nnc(C(F)(F)c4ccc5ncccc5c4)n3n2)cn1 [JNJ-38877605] | > 30 µM (inactive)
32 | COC(=O)[C@@]1(O)C[C@H]2O[C@]1(C)n1c3ccccc3c3c4c(c5c6ccccc6n2c5c31)C(=O)NC4 [K-252A] | 2.28 µM (active)
33 | COc1cc2nccc(Oc3ccc(NC(=O)NC4CC4)c(Cl)c3)c2cc1C(N)=O [LENVATINIB] | > 30 µM (inactive)
34 | Cc1c(F)cc(C(=O)NC2CC2)cc1-c1ccc(C(=O)NCC(C)(C)C)cn1 [LOSMAPIMOD] | > 30 µM (inactive)
35 | Cn1cc(-c2ccc(F)c(C(F)(F)F)c2)nc1C1CCN(c2ncnc3[nH]ncc23)CC1 [LY-2584702] | > 30 µM (inactive)

Target: T4, Phosphorylase b kinase gamma catalytic chain, liver/testis isoform (Homo sapiens, UniProt P15735)
T4 sequence (P15735 whole entry): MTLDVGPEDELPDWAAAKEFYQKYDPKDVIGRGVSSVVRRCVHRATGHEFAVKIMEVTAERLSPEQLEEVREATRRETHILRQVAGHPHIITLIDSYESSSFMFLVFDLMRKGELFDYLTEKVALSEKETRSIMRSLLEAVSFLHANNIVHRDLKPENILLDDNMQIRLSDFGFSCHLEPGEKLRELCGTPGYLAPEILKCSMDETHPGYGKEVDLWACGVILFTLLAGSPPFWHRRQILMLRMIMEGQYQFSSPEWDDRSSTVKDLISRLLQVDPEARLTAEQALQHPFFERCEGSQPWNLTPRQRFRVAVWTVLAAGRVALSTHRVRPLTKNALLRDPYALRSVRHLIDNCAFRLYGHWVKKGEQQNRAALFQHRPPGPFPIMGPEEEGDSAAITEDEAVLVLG

Row | Compound | Kd
36 | Cn1cc(-c2ccc3nnc(C(F)(F)c4ccc5ncccc5c4)n3n2)cn1 [JNJ-38877605] | > 30 µM (inactive)
37 | COC(=O)[C@@]1(O)C[C@H]2O[C@]1(C)n1c3ccccc3c3c4c(c5c6ccccc6n2c5c31)C(=O)NC4 [K-252A] | 3.26 µM (active)
38 | COc1cc2nccc(Oc3ccc(NC(=O)NC4CC4)c(Cl)c3)c2cc1C(N)=O [LENVATINIB] | > 30 µM (inactive)
39 | Cc1c(F)cc(C(=O)NC2CC2)cc1-c1ccc(C(=O)NCC(C)(C)C)cn1 [LOSMAPIMOD] | > 30 µM (inactive)
40 | Cn1cc(-c2ccc(F)c(C(F)(F)F)c2)nc1C1CCN(c2ncnc3[nH]ncc23)CC1 [LY-2584702] | > 30 µM (inactive)
